Data on 27 compounds can be found in PubChem BioAssay (NCI).

Structures are written as SMILES.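 These data come from cells grown in 96-well plates and exposed to compound for 48 hours at five concentrations. Here, GI50 denotes the concentration required for 50% inhibition of growth. At the TGI there is no net growth.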

Holding throughout (experiment): growth of human tumour cells (NCI), 48 h
For assay [1], the system named is 786-0 renal.
Assay [2] concerns CCRF-CEM leukemia.
In assay [3] the test system is M19-MEL melanoma.
Assay [4] relates to DMS 273 small cell lung.
Assay [5] relates to EKVX NSCLC.
Assay [6] concerns SF-539 CNS.
For assay [7], the system named is DLD-1 colon.
The subject of assay [8] is SK-OV-3 ovarian.
In assay [9] the test system is KM20L2 colon.
In assay [10] the test system is COLO 205 colon.
Assay [11] relates to BT-549 breast.
The test system of assay [12] is HS 578T breast.

Turning to `O/N=C1/CCCC/C1=C\c1ccc(Cl)c(Cl)c1`, the TGI in [1] is over 100 µM; in [2] it was 59.7 µM; in [3], over 100 µM; in assay [4], 63.1 µM; in assay [5], over 100 µM; in [6], 41.1 µM. Further, the TGI in assay [7] was over 100 µM; in [8] it was 86.9 µM; in [9], 43.4 µM; in assay [10], 38.9 µM.

As to `O=CN/C=C/c1ccccc1`, the TGI in assay [1], in assay [2], in [3], in [4], in assay [5] and in [6] was over 100 µM in each case. The TGI in [7], in assay [8], in [9] and in [10] was over 100 µM in each case.

On to `C[C@@H]1CC[C@@]2(C)OC(c3ccccc3)[C@H](CO)N2C1=O` (stereo not given in full), for which the TGI in [1], in [3], in assay [4], in assay [5], in assay [6] and in assay [7] was over 100 µM in each case. The TGI in assay [9] and in assay [10] was over 100 µM each time.

As for `O=S1Nc2cccc(C(F)(F)F)c2S1` (stereo not given), the TGI was over 100 µM in assay [1]; 29.3 µM in [2]; over 100 µM in [3]; over 100 µM in assay [4]; over 100 µM in assay [5]; over 100 µM in assay [6]. Moreover, the TGI is over 100 µM in assay [7], over 100 µM in [8], over 100 µM in assay [9] and 35.8 µM in assay [10].

`Cc1nc2ccccc2c(=O)n1/N=C(\N=Nc1ccccc1)c1ccccc1Cl`: the TGI in assay [1] is 99.9 µM; in assay [2] it was over 100 µM; in assay [3], over 100 µM; in assay [4], over 100 µM; in assay [5], over 100 µM; in assay [6] it was 65.2 µM. For the same compound, the TGI is over 100 µM in [7], 45.8 µM in assay [8], over 100 µM in assay [9] and over 100 µM in [10].

Regarding `CCOC(=O)C1CC(=O)C=C2CCCCC21` (stereo not given), the TGI in [1], in assay [2], in [3], in [4], in assay [5] and in assay [6] was over 100 µM throughout. The TGI in assay [7], in assay [8] and in [10] was over 100 µM each time.

Turning to `O=C1CCCc2ccc([N+](=O)[O-])c(O)c21`, the TGI in assay [1], in assay [2], in assay [3], in assay [4], in [5] and in [6] was over 100 µM each time. In addition, the TGI in assay [7], in assay [8], in assay [9] and in assay [10] was over 100 µM in each case.

For `CC1OC(n2cc(F)c(=O)[nH]c2=O)CCC1=O` (stereo not given), the TGI in [1] was over 100 µM; in [2], over 100 µM; in assay [3], over 100 µM; in assay [4], over 100 µM; in assay [6] it was 88.7 µM; in assay [7] it was over 100 µM. For the same compound, the TGI in assay [8], in assay [9] and in assay [10] was over 100 µM in each case.

As to `C[C@]12Cc3conc3C(O)=C1CC[C@@H]1C2CC[C@@]2(C)C1CC[C@@H]2O` (stereo not given in full), the TGI was over 100 µM in [1]; 55.5 µM in assay [2]; 74.5 µM in assay [3]; 25.2 µM in assay [4]; 64.7 µM in [5]; 44 µM in assay [6]. Besides, the TGI in [8] was 89 µM; in assay [9], over 100 µM; in [10], 99.4 µM.

Take `CCOC(=O)NC(=O)c1cn(CCSCCOC(=O)NCCCCCCNC(=O)OCCSCCn2cc(C(=O)NC(=O)OCC)c(=O)n(C)c2=O)c(=O)n(C)c1=O`: the TGI was 79.8 µM in assay [1]; over 100 µM in assay [2]; 51.3 µM in assay [3]; over 100 µM in assay [5]; 80.1 µM in [6]; over 100 µM in [7]. Moreover, the TGI in assay [8], in [9] and in [10] was over 100 µM throughout.

Take `COc1ccc2cc3c4cc(OC)c(OC)cc4ccn3c2c1`: the TGI in [1], in [2], in assay [3], in [4], in assay [5] and in [6] was over 100 µM in each case. Also, the TGI in assay [7], in assay [8] and in assay [10] was over 100 µM each time.

`O=C(O)c1cnc2c(ccc3[nH]cccc32)c1=O`: the TGI in [1], in [2], in assay [3], in assay [4], in assay [5] and in assay [6] was over 100 µM throughout. The TGI in assay [7], in assay [8], in assay [9] and in assay [10] was over 100 µM in each case.

On to `CC(=O)N1c2ccccc2N(C(C)=O)C1c1ccc(C2N(C(C)=O)c3ccccc3N2C(C)=O)[nH]1`, for which the TGI in assay [1], in assay [2], in [3], in [4], in assay [5] and in [6] was over 100 µM throughout. Also, the TGI in [8], in [9] and in assay [10] was over 100 µM each time.

In the case of `O=C1CCC2(c3ccc(Cl)cc3)Nc3ccccc3N12` (stereo not given), the TGI in [1], in [3], in assay [5], in assay [6], in assay [7] and in assay [9] was over 100 µM throughout. In [10], this compound displayed a TGI of over 100 µM.

Turning to `COc1ccc(C2(Cl)C(Cl)(C(F)(F)F)C2(Cl)C(F)(F)F)cc1` (stereo not given), the TGI in assay [1] came out at 31 µM; in assay [2] it was 33.2 µM; in assay [3] it was 26.5 µM; in assay [4], 27.4 µM; in assay [5], 31.6 µM; in assay [6], 28.9 µM. Further, the TGI in assay [7] is 29.4 µM; in assay [8], 31.2 µM; in assay [9] it was 28.9 µM; in assay [10], 29.3 µM.

Turning to `N#CC(Sc1ccccc1)C(N)=O` (stereo not given), the TGI in [1], in assay [2], in [3], in [4], in assay [5] and in assay [6] was over 100 µM in each case. In addition, the TGI in assay [7], in assay [8], in assay [9] and in [10] was over 100 µM each time.

As for `C=CCCn1nc(-c2ccccc2)oc1=O`, the TGI in assay [1], in assay [2], in assay [3], in [4], in assay [5] and in assay [6] was over 100 µM in each case. Moreover, the TGI in assay [7], in assay [8], in assay [9] and in assay [10] was over 100 µM in each case.

As for `CC(C)N(C(=O)C12C3C4C5C3C1(C(=O)O)C5C42)C(C)C` (stereo not given), the TGI in [1], in assay [2], in [3], in assay [4], in assay [5] and in assay [6] was over 100 µM each time. Besides, the TGI in assay [7], in [8], in assay [9] and in assay [10] was over 100 µM in each case.

For `O=CCCn1[nH]c(=O)ccc1=O`, the TGI in assay [1], in assay [2], in assay [3], in assay [4], in assay [5] and in assay [6] was over 100 µM throughout. The TGI in assay [7] and in [9] was over 100 µM in each case.

Consider `Cn1cnc([N+](=O)[O-])c1Sc1n[nH]c(-c2ccc(Cl)cc2)n1`, for which the TGI in assay [1] was 51.5 µM; in [2] it was 39.6 µM; in [3], 47.7 µM; in assay [4], 37.3 µM; in assay [5], 79.9 µM; in [6], 29.9 µM. Further, the TGI came out at 52.5 µM in assay [7], 95.7 µM in [8] and 30.9 µM in assay [10].

Regarding `CCCCCCCCCCCCCCCCc1c(C(=O)OC)nc(NC#N)[nH]c1=O`, the TGI in assay [1], in assay [2], in assay [3], in assay [5], in assay [6] and in assay [7] was over 25 µM each time. Also, the TGI in [8], in assay [9] and in [10] was over 25 µM in each case.

On to `CN(C)CC1(C)CC/C(=C\c2ccc(Cl)cc2)C1=O` (stereo not given), for which the TGI in assay [1] is over 100 µM; in assay [2] it was 68.4 µM; in assay [3] it was over 100 µM; in assay [4], 50.7 µM; in [6], over 100 µM; in assay [7], 85.7 µM. The TGI in [9] came to 35.7 µM; in assay [10], 31.7 µM.

In the case of `ClCc1ccccc1Cn1cnc2nc(Cl)nc(Cl)c21`, the GI50 is 0.19 µM in [1]; 0.104 µM in assay [2]; 1.34 µM in assay [11]; 0.62 µM in [5]; 0.639 µM in assay [6]; 0.331 µM in assay [12]. Moreover, the GI50 in assay [8] was 4.35 µM; in assay [10], 0.357 µM. Also, the TGI worked out at 1.08 µM in assay [1]; 0.305 µM in [2]; 3.08 µM in assay [11]; 1.54 µM in assay [5]; 1.29 µM in assay [6]; 1.22 µM in assay [12]. Besides, the TGI was 15.4 µM in assay [8] and over 100 µM in [10].

Take `Nc1nc(-c2cccnc2)cc(-c2cc(-c3cccnc3)nc(N)n2)n1`: the TGI in [1], in assay [2], in assay [11], in assay [5], in assay [6] and in assay [12] was over 100 µM each time. In addition, the TGI in assay [8] and in [10] was over 100 µM throughout.

On to `O=C1CN=C(c2ccc[nH]2)c2cc(Cl)ccc2N1`, for which the GI50 in assay [1] is over 100 µM; in [2], 30.6 µM; in assay [11] it was 53.3 µM; in assay [5], over 100 µM; in [6], over 100 µM; in assay [12], over 100 µM. The GI50 in assay [8] and in assay [10] was over 100 µM each time. Moreover, the TGI in [1], in assay [2], in assay [11], in assay [5], in [6] and in [12] was over 100 µM in each case. Moreover, the TGI in assay [8] and in [10] was over 100 µM throughout.

Turning to `CC(C)[C@@]12C[C@@H](OC(=O)C3CO3)[C@@](C)(O1)[C@@H]1CC[C@@H](C)[C@H]1[C@@H]2OC(=O)/C=C/c1ccccc1` (stereo not given in full), the GI50 in assay [1] was 14 µM; in [2], 29 µM; in assay [11] it was 11.3 µM; in assay [5], 18.2 µM; in assay [6] it was 16.4 µM; in assay [12], 0.354 µM. Besides, the values for the GI50 in [8] and in assay [10] were 18.6 µM and 27.8 µM, respectively. Further, the TGI in assay [1] is 29.5 µM; in [2], over 100 µM; in assay [11], 27.8 µM; in [5], 50.9 µM; in assay [6], 31.4 µM; in [12], 3.11 µM. For the same compound, the TGI is 46.8 µM in assay [8] and over 100 µM in assay [10].

Take `O=C(Nc1ccc(I)cc1F)c1cc(Br)ccc1O`: the GI50 is 2.19 µM in assay [1]; 1.01 µM in assay [2]; 0.37 µM in assay [11]; 1.04 µM in [5]; 0.583 µM in assay [6]; 0.346 µM in assay [12]. The values for the GI50 in assay [8] and in [10] were 0.681 µM and 3.83 µM, respectively. The TGI in assay [1] was 5.5 µM; in assay [2], 19.5 µM; in assay [11], 1.76 µM; in assay [5], 7.22 µM; in assay [6], 3.74 µM; in assay [12] it was 2.62 µM. Also, the TGI in assay [8] amounted to 2.92 µM; in assay [10] it was 13.4 µM.
